The subject of series [1] is mouse RAW264.7 macrophages. Briefly: TNFα secretion in RAW264.7 macrophages. It counts as cell-based. The settings on record: elafin 10-1000 ng/ml, 6 h. On the procedure:
Mouse RAW264.7 macrophages (#TIB-71, ATCC) were cultured in Dulbecco's modified Eagle's medium (DMEM) (#11965-084, ThermoFisher) with 10% fetal bovine serum (FBS) (#10437-028, Life Technologies) and 1% penicillin/streptomycin/glutamine (P/S/G) (#10378-016, Life Technologies) mixture. The macrophages were serum-starved overnight, followed by exposure to fatty acid-free bovine serum albumin (BSA) (A7030, Sigma), sodium palmitate (P9767, Sigma), or lipopolysaccharide (LPS) (L5418, Sigma) for 2 h, and then the addition of elafin (10-1000 ng/ml) for additional 6 h. The cell-conditioned media were used for mouse TNFα ELISA (DY410, R&D Systems).

A further series relates to SAMP1/YitFc mice. In words: Spontaneous ileal fibrosis in SAMP1/YitFc mice. In kind it is in vivo. The settings on record: SAMP1/YitFc model. On the procedure: Eight-week-old male and female SAMP1/YitFc mice (#009355) and normal AKR strain control mice (#000648) were purchased from Jackson Laboratories. SAMP1/YitFc mice developed spontaneous ileal inflammation and fibrosis at 40 weeks of age.
Some groups were treated with antibiotics mixture in drinking water ad libitum from 10 to 42 weeks of age. Others received a single intraperitoneal injection (1×10^7 infectious units/mouse) of either control lentivirus or elafin-expressing lentivirus (RC203136L1V, Origene) at 40-weeks of age. Ileal tissues were collected for analysis two weeks after the lentiviral injection.
H&E and Masson Trichrome (MT) staining were performed as described previously. Microphotographs were recorded at multiple locations and scored by two investigators blindly. Intestinal injuries were scored (0-12). The severity of intestinal fibrosis was assessed by MT staining and scored (0-3). ZEB1 immunohistochemistry was performed using an anti-ZEB1 antibody (HPA027524, Sigma).
Total RNA was isolated by an RNeasy kit (#74104, Qiagen) and reverse transcribed into cDNA by a high-capacity cDNA reverse transcription kit (#4368813, ThermoFisher). […] Relative mRNA/miRNA quantification was performed by comparing test groups and control groups after normalization with endogenous control genes. The fold changes are expressed as 2^ΔΔCt. […]

Series [2] can be described thus: Basic pharmacokinetics of subcutaneous elafin in RD-treated male mice. It counts as in vivo. The settings on record: natural elafin 1 mg/kg subcutaneous. As for the experimental part: FIG. 36. Subcutaneous and oral administration of modified elafin inhibited hyperphagia and hyperglycemia in HFD-treated male mice. (A) Elafin (1 mg/kg) was injected into RD-treated male mice subcutaneously. Tail-vein blood samples were collected for elafin ELISA. This mouse experiment was intended for the determination of basic pharmacokinetics of elafin, but not the determination of physiology of elafin. (B) HFD-treated mice were treated with either oral gavage of Elafin-Eudragit formulation (10 mg/kg) daily or subcutaneous injection of PEG-elafin (3.25 mg/kg) every 48 h for 14 days. Serum elafin levels. (C) Serum leptin levels. (D) Serum IFNγ and IL-1β levels. (E) Daily food consumption. (F) Change in fat mass. (G) Change in body weight over 14 days. (H) Fasting blood glucose levels. Each group consists of 8 mice.

For the next series, the system named is CCD-18Co fibroblasts. Briefly: Elafin exposure of serum-starved CCD-18Co fibroblasts (Example 1). It counts as cell-based, human. The following applies: elafin 0.1-3 μg/ml, 24 hours, no TGF-β1. As for the experimental part: FIG. 6. Elafin promotes fibrogenesis in human colonic fibroblasts. (A) The human colonic CCD-18Co fibroblasts were incubated with 100 μl/ml (10%) of human sera from normal, stricturing CD, and non-stricturing CD patients in serum-free DMEM for 24 hours. (B) The human colonic CCD-18Co fibroblasts were incubated with 100 μl/ml (10%) of human sera from high elafin CD group (>8000 pg/ml) and low elafin CD group (<8000 pg/ml) in serum-free DMEM for 24 hours. (C) Serum-starved CCD-18Co fibroblasts were pretreated with 15 μg/ml of anti-elafin neutralizing antibody or control antibody for 30 minutes, followed by exposure to (100 μl/ml) human sera from normal and stricturing CD patients for 24 hours. Six serum donors per group. (D) Serum-starved CCD-18Co fibroblasts were exposed to elafin (0.1-3 μg/ml) for 24 hours. Pro-COL1A1 protein levels in cell lysates were determined by ELISA. (E) Serum-starved primary human intestinal fibroblasts from CD patients were exposed to elafin for 24 hours. mRNA expression was determined by real-time RT-PCR.
Human CCD-18Co intestinal fibroblasts (ATCC) (2×10^6 cells/plate) were cultured in minimal essential medium Eagle's medium (MEM) containing 10% fetal bovine serum (FBS) and 1% penicillin-streptomycin (P/S) (Invitrogen). […]

Take “Elafin: small (6 kDa) human elastase-specific protease inhibitor and antimicrobial peptide; active form SEQ ID NO: 2 (AQEPVKGPVSTKPGSCPIILIRCAMLNPPNRCLKDTDCPGIKKCCEGSCGMACFVPQ; listed as Homo sapiens)”: the “LPS- and palmitate-induced TNFα secretion” value in series [1] is “did not affect”. Further, in the series with SAMP1/YitFc mice, the overall disease activity stood at 7%. In series [2], this substance gave a half-life in circulation of 3 h. In addition, the “pro-collagen 1A1 protein expression” value in the series with CCD-18Co fibroblasts was “significantly increased”.

Values taken from patent publication US20230405078A1, “DETECTION AND TREATMENT OF INTESTINAL FIBROSIS” (THE REGENTS OF THE UNIVERSITY OF CALIFORNIA, priority 2020, published 2023).
